Test results taken from patent US6875865B1, “Selected derivatives of K-252a” (Cephalon, Inc., priority 1996, dated 2005).

Each compound was assayed on basal forebrain cultures (assay: Basal Forebrain ChAT Activity Assay). Conditions: day six, concentration not given, tested between 10 nM and 500 nM, at least 120% of control = active.
Type: cell-based, rat
Description: Compounds of the invention were assessed for their ability to promote survival and increase in ChAT activity in basal forebrain cultures. ChAT activity in these cultures is a biochemical marker for the cholinergic neurons (less than 5% of the cells in culture), which represent the major cholinergic input to the hippocampal formation, olfactory nucleus, interpeduncular nucleus, cortex, amygdala, and parts of the thalamus. […] The basal forebrain was dissected from embryonic day 17 or 18 rat embryos and the cells were […] with Dispase™ (neutral protease, Collaborative Research). Neurons were plated at 5×10^4 cells/well (1.5×10^5 cells/cm^2) in wells of 96-well plates previously coated with […] and laminin. Cells were cultured in serum-free N2 medium containing 0.05% bovine serum albumin (BSA) (Bottenetein et al., supra) at 37° in a humidified atmosphere of 5% CO2/95% air. ChAT activity was measured in vitro at day six, using a modification of the Formum procedure (supra) according to McManaman et al. (supra) and Glicksman et al. (J. Neurochem. 61:210-221, 1993).
(§1) Compounds which increased ChAT activity at least 120% of the control activity are considered active.

| Compound | ChAT Activity maximum efficacy % of Control (conc) |
| --- | --- |
| COC(=O)C1(O)CC2OC1(C)n1c3ccc(C(=O)CSc4ncccn4)cc3c3c4c(c5c6cc(C(=O)CSc7ncccn7)ccc6n2c5c31)C(=O)NC4 (stereo not drawn) [Compound 49] | <120 % of Control |
| COC(=O)C1(O)CC2OC1(C)n1c3ccc(CCI)cc3c3c4c(c5c6cc(CCI)ccc6n2c5c31)C(=O)NC4 (stereo not drawn) [Compound 70a] | <120 % of Control |
| COC(=O)C1(O)CC2OC1(C)n1c3ccc(CCN4CCCCC4)cc3c3c4c(c5c6cc(CCN7CCCCC7)ccc6n2c5c31)C(=O)NC4 (stereo not drawn) [Compound 75] | <120 % of Control |
| COC(=O)C1(O)CC2OC1(C)n1c3ccc(CCN4CCOCC4)cc3c3c4c(c5c6cc(CCN7CCOCC7)ccc6n2c5c31)C(=O)NC4 (stereo not drawn) [Compound 76] | <120 % of Control |
| COC(=O)C1(O)CC2OC1(C)n1c3ccc(CCN(C)CCO)cc3c3c4c(c5c6cc(CCN(C)CCO)ccc6n2c5c31)C(=O)NC4 (stereo not drawn) [Compound 78] | <120 % of Control |
| CNCCc1ccc2c(c1)c1c3c(c4c5cc(CCNC)ccc5n5c4c1n2C1CC(O)(C(=O)OC)C5(C)O1)CNC3=O (stereo not drawn) [Compound 79] | <120 % of Control |
| COC(=O)C1(O)CC2OC1(C)n1c3ccc(CCNCc4ccc(OC)cc4)cc3c3c4c(c5c6cc(CCNCc7ccc(OC)cc7)ccc6n2c5c31)C(=O)NC4 (stereo not drawn) [Compound 80] | <120 % of Control |
| COC(=O)C1(O)CC2OC1(C)n1c3ccc(CCCN4CCOCC4)cc3c3c4c(c5c6cc(CCCN7CCOCC7)ccc6n2c5c31)C(=O)NC4 (stereo not drawn) [Compound 83] | <120 % of Control |
| CCN(CC)CCCc1ccc2c(c1)c1c3c(c4c5cc(CCCN(CC)CC)ccc5n5c4c1n2C1CC(O)(C(=O)OC)C5(C)O1)CNC3=O (stereo not drawn) [Compound 84] | <120 % of Control |
| COC(=O)CSCCc1ccc2c(c1)c1c3c(c4c5cc(CCSCC(=O)OC)ccc5n5c4c1n2C1CC(O)(C(=O)OC)C5(C)O1)CNC3=O (stereo not drawn) [Compound 89] | <120 % of Control |
| CCOC(=O)CCSCCc1ccc2c(c1)c1c3c(c4c5cc(CCSCCC(=O)OCC)ccc5n5c4c1n2C1CC(O)(C(=O)OC)C5(C)O1)CNC3=O (stereo not drawn) [Compound 90] | <120 % of Control |
| COC(=O)C1(O)CC2OC1(C)n1c3ccc(CCSc4ccncc4)cc3c3c4c(c5c6cc(CCSc7ccncc7)ccc6n2c5c31)C(=O)NC4 (stereo not drawn) [Compound 93] | <120 % of Control |
| COC(=O)C1(O)CC2OC1(C)n1c3ccc(CCCSc4nc5ccccc5s4)cc3c3c4c(c5c6cc(CCCSc7nc8ccccc8s7)ccc6n2c5c31)C(=O)NC4 (stereo not drawn) [Compound 96] | <120 % of Control |
| COC(=O)C1(O)CC2OC1(C)n1c3ccc(COCCN(C)C)cc3c3c4c(c5c6cc(C=Cc7ccccn7)ccc6n2c5c31)C(=O)NC4 (stereo not drawn) [Compound 104] | <120 % of Control |

Same assay, conditions: day six, maximum efficacy at 50 nM

| Compound | ChAT Activity maximum efficacy % of Control (conc) |
| --- | --- |
| COC(=O)C1(O)CC2OC1(C)n1c3ccccc3c3c4c(c5c6cc(C#CCN(C)C)ccc6n2c5c31)C(=O)NC4 (stereo not drawn) [Compound 61] | 166 (50 nM) % of Control |
| COCc1ccc2c(c1)c1c3c(c4c5cc(C=Cc6ccccn6)ccc5n5c4c1n2C1(C)OC5CC1(O)C(=O)OC)C(=O)NC3 (stereo not drawn) [Compound 102] | 176 (50 nM) % of Control |
| CCOCc1ccc2c(c1)c1c3c(c4c5cc(C=Cc6ccccn6)ccc5n5c4c1n2C1(C)OC5CC1(O)C(=O)OC)C(=O)NC3 (stereo not drawn) [Compound 103] | 154 (50 nM) % of Control |
| CCSCc1ccc2c(c1)c1c3c(c4c5cc(C=Cc6ccccn6)ccc5n5c4c1n2C1(C)OC5CC1(O)C(=O)OC)C(=O)NC3 (stereo not drawn) [Compound 105] | 136 (50 nM) % of Control |

Same assay, conditions: day six, maximum efficacy at 250 nM

| Compound | ChAT Activity maximum efficacy % of Control (conc) |
| --- | --- |
| COC(=O)C1(O)CC2OC1(C)n1c3ccc(C(=O)CSc4ccncc4)cc3c3c4c(c5c6ccccc6n2c5c31)C(=O)NC4 (stereo not drawn) [Compound 42b] | 164 (250 nM) % of Control |
| COC(=O)C1(O)CC2OC1(C)n1c3ccc(C=CCN(C)C)cc3c3c4c(c5c6cc(C=CCN(C)C)ccc6n2c5c31)C(=O)NC4 (stereo not drawn) [Compound 64] | 165 (250 nM) % of Control |
| COC(=O)C1(O)CC2OC1(C)n1c3ccc(CCCOC=O)cc3c3c4c(c5c6cc(CCCOC=O)ccc6n2c5c31)C(=O)NC4 (stereo not drawn) [Compound 73b] | 171 (250 nM) % of Control |
| COC(=O)C1(O)CC2OC1(C)n1c3ccc(CCCO)cc3c3c4c(c5c6cc(CCCO)ccc6n2c5c31)C(=O)NC4 (stereo not drawn) [Compound 73c] | 190 (250 nM) % of Control |
| CCN(CC)CCc1ccc2c(c1)c1c3c(c4c5cc(CCN(CC)CC)ccc5n5c4c1n2C1CC(O)(C(=O)OC)C5(C)O1)CNC3=O (stereo not drawn) [Compound 77] | 132 (250 nM) % of Control |
| COC(=O)C1(O)CC2OC1(C)n1c3ccc(CCCN4CCCCC4)cc3c3c4c(c5c6cc(CCCN7CCCCC7)ccc6n2c5c31)C(=O)NC4 (stereo not drawn) [Compound 82] | 150 (250 nM) % of Control |
| COC(=O)C1(O)CC2OC1(C)n1c3ccc(CSCCN(C)C)cc3c3c4c(c5c6cc(C=Cc7ccccn7)ccc6n2c5c31)C(=O)NC4 (stereo not drawn) [Compound 106] | 135 (250 nM) % of Control |

These compounds were tested on dissociated spinal cord cultures (assay: Spinal Cord ChAT Activity Assay). Conditions: concentration not given, at least 120% of control = active.
Type: cell-based, rat
Description: The effect of selected ring substituted K-252a derivatives on CHAT activity was assayed in dissociated spinal cord cultures prepared from fetal rats using the procedure described in U.S. Pat. No. 5,461,146, Columns 26 and 27, Examples 6 and 7. ChAT is the enzyme that catalyzes the synthesis of the neurotransmitter acetylcholine, and it is a specific biochemical marker for cholinergic neurons. In the spinal cord, the large majority of cholinergic neurons are motor neurons. Assay of this enzyme may thus be used as an indication of the effects of a factor, or actors, on the survival of cholinergic neurons and/or regulation of this enzyme.
as §1

| Compound | ChAT Activity maximum efficacy % of Control (conc) |
| --- | --- |
| COC(=O)CCc1ccc2c(c1)c1c3c(c4c5cc(CCC(=O)OC)ccc5n5c4c1n2C1CC(O)(C(=O)OC)C5(C)O1)CNC3=O (stereo not drawn) [Compound 139] | <120 % of Control |

Same assay, conditions: maximum efficacy at 30 nM

| Compound | ChAT Activity maximum efficacy % of Control (conc) |
| --- | --- |
| COC(=O)C=Cc1ccc2c(c1)c1c3c(c4c5cc(C=CC(=O)OC)ccc5n5c4c1n2C1CC(O)(C(=O)OC)C5(C)O1)CNC3=O (stereo not drawn) [Compound 1] | 153 (30 nM) % of Control |
| COCc1ccc2c(c1)c1c3c(c4c5cc(C=Cc6ccccn6)ccc5n5c4c1n2C1CC(O)(C(=O)OC)C5(C)O1)CNC3=O (stereo not drawn) [Compound 116] | 231 (30 nM) % of Control |
| CCOCc1ccc2c(c1)c1c3c(c4c5cc(C=Cc6ccccn6)ccc5n5c4c1n2C1CC(O)(C(=O)OC)C5(C)O1)CNC3=O (stereo not drawn) [Compound 117] | 232 (30 nM) % of Control |
| CCSCc1ccc2c(c1)c1c3c(c4c5cc(C=Cc6ccccn6)ccc5n5c4c1n2C1CC(O)(C(=O)OC)C5(C)O1)CNC3=O (stereo not drawn) [Compound 118] | 249 (30 nM) % of Control |
| COC(=O)C1(O)CC2OC1(C)n1c3ccc(C=Cc4ccccn4)cc3c3c4c(c5c6cc(CSc7ccccn7)ccc6n2c5c31)C(=O)NC4 (stereo not drawn) [Compound 119] | 272 (30 nM) % of Control |

Same assay, conditions: maximum efficacy at 300 nM

| Compound | ChAT Activity maximum efficacy % of Control (conc) |
| --- | --- |
| COC(=O)C1(O)CC2OC1(C)n1c3ccc(CCOC=O)cc3c3c4c(c5c6cc(CCOC=O)ccc6n2c5c31)C(=O)NC4 (stereo not drawn) [Compound 70b] | 169 (300 nM) % of Control |
| COC(=O)C1(O)CC2OC1(C)n1c3ccc(C=Cc4ccccn4)cc3c3c4c(c5c6cc(CSc7nc8ccccc8[nH]7)ccc6n2c5c31)C(=O)NC4 (stereo not drawn) [Compound 120] | 257 (300 nM) % of Control |
| CCC=Cc1ccc2c(c1)c1c3c(c4c5cc(C=Cc6ccccn6)ccc5n5c4c1n2C1CC(O)(C(=O)OC)C5(C)O1)CNC3=O (stereo not drawn) [Compound 122] | 279 (300 nM) % of Control |
| CCOC(=O)CCc1ccc2c(c1)c1c3c(c4c5cc(CCC(=O)OCC)ccc5n5c4c1n2C1CC(O)(C(=O)OC)C5(C)O1)CNC3=O (stereo not drawn) [Compound 140] | 156 (300 nM) % of Control |
| COC(=O)C1(O)CC2OC1(C)n1c3ccc(C=Cc4ccccn4)cc3c3c4c(c5c6cc(Br)ccc6n2c5c31)C(=O)NC4 (stereo not drawn) [Compound 142] | 223 (300 nM) % of Control |
| COC(=O)C1(O)CC2OC1(C)n1c3ccc(CCc4ccccn4)cc3c3c4c(c5c6cc(Br)ccc6n2c5c31)C(=O)NC4 (stereo not drawn) [Compound 143] | 264 (300 nM) % of Control |
| COC(=O)C1(O)CC2OC1(C)n1c3ccc(C=Cc4ccncc4)cc3c3c4c(c5c6cc(C=Cc7ccncc7)ccc6n2c5c31)C(=O)NC4 (stereo not drawn) [Compound 145] | 129 (300 nM) % of Control |
| COC(=O)C1(O)CC2OC1(C)n1c3ccc(CCc4ccncc4)cc3c3c4c(c5c6cc(CCc7ccncc7)ccc6n2c5c31)C(=O)NC4 (stereo not drawn) [Compound 146] | 153 (300 nM) % of Control |
| COC(=O)C1(O)CC2OC1(C)n1c3ccccc3c3c4c(c5c6cc(C=Cc7ncc[nH]7)ccc6n2c5c31)C(=O)NC4 (stereo not drawn) [Compound 148] | 206 (300 nM) % of Control |
| COCOCc1ccc2c(c1)c1c3c(c4c5ccccc5n5c4c1n2C1CC(O)(C(=O)OC)C5(C)O1)CNC3=O (stereo not drawn) [Compound 154] | 177 (300 nM) % of Control |
| COCOCc1ccc2c(c1)c1c3c(c4c5cc(COCOC)ccc5n5c4c1n2C1CC(O)(C(=O)OC)C5(C)O1)CNC3=O (stereo not drawn) [Compound 155] | 197 (300 nM) % of Control |
